This test concerns the target recombinant IL4I1 (Homo sapiens (Human), UniProt Q96RQ9). Description: IL4I1 Enzymatic Assay (Amplex Red/HRP coupled fluorescence detection of H2O2). Type of test: biochemical. To be noted: 240 min; recombinant IL4I1, four-hour pre-incubation with compound. The method in brief: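 Ten-point, 1:3 compound titrations were fitted by four-parameter sigmoidal regression to give EC50. Resorufin fluorescence (544/590 nm) from Amplex Red/HRP-coupled H2O2 detection was read 120 min after adding 1 mM each aromatic amino acid to 1 nM IL4I1, following a 4 h compound pre-incubation in pH 7.0 Hepes buffer.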

The EC50 is the concentration needed to bring the measured effect to its halfway point.

Chain of recombinant IL4I1 (Q96RQ9 22-567): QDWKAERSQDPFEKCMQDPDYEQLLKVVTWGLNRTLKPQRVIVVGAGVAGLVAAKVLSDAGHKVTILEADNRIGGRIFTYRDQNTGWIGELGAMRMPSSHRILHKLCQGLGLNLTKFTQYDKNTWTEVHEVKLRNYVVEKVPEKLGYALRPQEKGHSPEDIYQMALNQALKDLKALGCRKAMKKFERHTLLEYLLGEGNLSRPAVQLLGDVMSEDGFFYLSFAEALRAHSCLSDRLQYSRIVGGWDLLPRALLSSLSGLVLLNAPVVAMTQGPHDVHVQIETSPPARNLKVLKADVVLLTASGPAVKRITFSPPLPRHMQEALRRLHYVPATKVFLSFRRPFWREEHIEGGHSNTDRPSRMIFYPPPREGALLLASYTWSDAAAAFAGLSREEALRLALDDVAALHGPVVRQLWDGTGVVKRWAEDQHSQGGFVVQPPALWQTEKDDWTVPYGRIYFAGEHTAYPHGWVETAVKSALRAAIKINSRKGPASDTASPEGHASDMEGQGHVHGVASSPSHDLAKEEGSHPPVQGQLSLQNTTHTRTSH

For the compound `O=C1C(=O)N(C23CC(F)(C2)C3)CCN1Cc1ccc(-n2ccnn2)nc1` [Example 236, 1-((6-(1H-1,2,3-triazol-1-yl)pyridin-3-yl)methyl)-4-(3-fluorobicyclo[1.1.1]pentan-1-yl)piperazine-2,3-dione], the EC50 was found to be 533 nM.
The value for `O=C1C(=O)N(C23CC(F)(C2)C3)CCN1Cc1ccc(-n2cccn2)nc1` [Example 237, 1-((6-(1H-pyrazol-1-yl)pyridin-3-yl)methyl)-4-(3-fluorobicyclo[1.1.1]pentan-1-yl)piperazine-2,3-dione] was 346 nM; that for `O=c1c(=O)n(C2(CF)CC2)ccn1Cc1cc(-c2ccccn2)on1` [Example 238, 1-(1-(fluoromethyl)cyclopropyl)-4-((5-(pyridin-2-yl)isoxazol-3-yl)methyl)-1,4-dihydropyrazine-2,3-dione] was 29 nM.
The value for `O=c1c(=O)n(C2(CF)CC2)ccn1Cc1ccc(-c2ccccn2)nn1` [Example 239, 1-(1-(fluoromethyl)cyclopropyl)-4-((6-(pyridin-2-yl)pyridazin-3-yl)methyl)-1,4-dihydropyrazine-2,3-dione] was 82 nM; that for `O=C1C(=O)N(C23CC(F)(C2)C3)CCN1Cc1cc(-c2cccnc2)no1` [Example 240, 1-(3-fluorobicyclo[1.1.1]pentan-1-yl)-4-((3-(pyridin-3-yl)isoxazol-5-yl)methyl)piperazine-2,3-dione] was 995 nM.
`O=C1C(=O)N(C23CC(F)(C2)C3)CCN1Cc1ccc(-c2cccnc2)nn1` [Example 241, 1-(3-fluorobicyclo[1.1.1]pentan-1-yl)-4-((6-(pyridin-3-yl)pyridazin-3-yl)methyl)piperazine-2,3-dione]: the EC50 worked out at 40 nM.
Take `O=c1c(=O)n(C2(CF)CC2)ccn1Cc1ccc(-c2ccccc2F)nn1` [Example 242, 1-(1-(fluoromethyl)cyclopropyl)-4-((6-(2-fluorophenyl)pyridazin-3-yl)methyl)-1,4-dihydropyrazine-2,3-dione]: the half-maximal effective concentration (EC50) stood at 32 nM.
The value for `O=C1C(=O)N(C23CC(F)(C2)C3)CCN1Cc1ccc(-c2cncs2)nn1` [Example 243, 1-(3-fluorobicyclo[1.1.1]pentan-1-yl)-4-((6-(thiazol-5-yl)pyridazin-3-yl)methyl)piperazine-2,3-dione] was 30 nM; that for `O=C1C(=O)N(C23CC(F)(C2)C3)CCN1Cc1ccc(-n2nccn2)cn1` [Example 244, 1-((5-(2H-1,2,3-triazol-2-yl)pyridin-2-yl)methyl)-4-(3-fluorobicyclo[1.1.1]pentan-1-yl)piperazine-2,3-dione] was 45 nM; that for `O=c1c(=O)n(C2(CF)CC2)ccn1Cc1ccc(-c2cncs2)nn1` [Example 245, 1-(1-(fluoromethyl)cyclopropyl)-4-((6-(thiazol-5-yl)pyridazin-3-yl)methyl)-1,4-dihydropyrazine-2,3-dione] was 43 nM.
In the case of `O=c1c(=O)n(C2(CF)CC2)ccn1Cc1cc(-c2cccnc2)no1` [Example 246, 1-(1-(fluoromethyl)cyclopropyl)-4-((3-(pyridin-3-yl)isoxazol-5-yl)methyl)-1,4-dihydropyrazine-2,3-dione] it was 37 nM; in that of `O=c1c(=O)n(C2(CF)CC2)ccn1Cc1ccc(-n2ccnn2)nn1` [Example 247, 1-((6-(1H-1,2,3-triazol-1-yl)pyridazin-3-yl)methyl)-4-(1-(fluoromethyl)cyclopropyl)-1,4-dihydropyrazine-2,3-dione], 44 nM; in that of `O=c1c(=O)n(C23CC(F)(C2)C3)ccn1Cc1ccc(-n2ccnn2)nn1` [Example 248, 1-((6-(1H-1,2,3-triazol-1-yl)pyridazin-3-yl)methyl)-4-(3-fluorobicyclo[1.1.1]pentan-1-yl)-1,4-dihydropyrazine-2,3-dione], 38 nM.
On to `O=C1C(=O)N(C23CC(F)(C2)C3)CCN1Cc1ccc(-n2ccnn2)nn1` [Example 249, 1-((6-(1H-1,2,3-triazol-1-yl)pyridazin-3-yl)methyl)-4-(3-fluorobicyclo[1.1.1]pentan-1-yl)piperazine-2,3-dione], for which the EC50 worked out at 148 nM.
In the case of `O=C1C(=O)N(C23CC(F)(C2)C3)CCN1Cc1ccc(-n2cccn2)cn1` [Example 250, 1-((5-(1H-pyrazol-1-yl)pyridin-2-yl)methyl)-4-(3-fluorobicyclo[1.1.1]pentan-1-yl)piperazine-2,3-dione] it was 240 nM.
In the case of `O=c1c(=O)n(C2(CF)CC2)ccn1Cc1ccc(-c2ccccn2)cn1` [Example 251, 1-([2,3′-bipyridin]-6′-ylmethyl)-4-(1-(fluoromethyl)cyclopropyl)-1,4-dihydropyrazine-2,3-dione] it was 100 nM; in that of `O=C1C(=O)N(C23CC(F)(C2)C3)CCN1Cc1cc(-c2ccccn2)on1` [Example 252, 1-(3-fluorobicyclo[1.1.1]pentan-1-yl)-4-((5-(pyridin-2-yl)isoxazol-3-yl)methyl)piperazine-2,3-dione], 38 nM; in that of `O=c1c(=O)n(C2(CF)CC2)ccn1Cc1cc(-c2cccnc2)on1` [Example 253, 1-(1-(fluoromethyl)cyclopropyl)-4-((5-(pyridin-3-yl)isoxazol-3-yl)methyl)-1,4-dihydropyrazine-2,3-dione], 45 nM.
The value for `O=C1C(=O)N(C23CC(F)(C2)C3)CCN1Cc1ccc(-c2ccccn2)cn1` [Example 254, 1-([2,3′-bipyridin]-6′-ylmethyl)-4-(3-fluorobicyclo[1.1.1]pentan-1-yl)piperazine-2,3-dione] was 93 nM.
In the case of `O=c1c(=O)n(C23CC(F)(C2)C3)ccn1Cc1ccc(-n2nccn2)nc1` [Example 255, 1-((6-(2H-1,2,3-triazol-2-yl)pyridin-3-yl)methyl)-4-(3-fluorobicyclo[1.1.1]pentan-1-yl)-1,4-dihydropyrazine-2,3-dione], the half-maximal effective concentration (EC50) came out at 47 nM.
As to `O=C1C(=O)N(C23CC(F)(C2)C3)CCN1Cc1cc(-c2cccnc2)on1` [Example 256, 1-(3-fluorobicyclo[1.1.1]pentan-1-yl)-4-((5-(pyridin-3-yl)isoxazol-3-yl)methyl)piperazine-2,3-dione], the EC50 is 533 nM.
Regarding `O=c1c(=O)n(C2(CF)CC2)ccn1Cc1cn(-c2ccccn2)nn1` [Example 257, 1-(1-(fluoromethyl)cyclopropyl)-4-((1-(pyridin-2-yl)-1H-1,2,3-triazol-4-yl)methyl)-1,4-dihydropyrazine-2,3-dione], the concentration giving a half-maximal response (EC50) is 68 nM.
The value for `N#CC1(n2ccn(Cc3cn(-c4ccccn4)nn3)c(=O)c2=O)CC1` [Example 258, 1-(2,3-dioxo-4-((1-(pyridin-2-yl)-1H-1,2,3-triazol-4-yl)methyl)-3,4-dihydropyrazin-1(2H)-yl)cyclopropane-1-carbonitrile] was 78 nM.
The value for `O=C1C(=O)N(C23CC(F)(C2)C3)CCN1Cc1cn(-c2ccccn2)nn1` [Example 259, 1-(3-fluorobicyclo[1.1.1]pentan-1-yl)-4-((1-(pyridin-2-yl)-1H-1,2,3-triazol-4-yl)methyl)piperazine-2,3-dione] was 78 nM.
In the case of `O=c1c(=O)n(C23CC(F)(C2)C3)ccn1Cc1cn(-c2ccccn2)nn1` [Example 260, 1-(3-fluorobicyclo[1.1.1]pentan-1-yl)-4-((1-(pyridin-2-yl)-1H-1,2,3-triazol-4-yl)methyl)-1,4-dihydropyrazine-2,3-dione] it was 38 nM.

The values above are taken from patent US20240246937A1 (MERCK SHARP & DOHME LLC, priority 2021, published 2024).
